Data as given in patent US11491460B2, “Porous cyclodextrin polymeric materials and methods of making and using same” (Cornell University, priority 2015, dated 2022).
Where a name gives a salt, the structure may show the parent alone.

Key:
[1] = Micropollutant adsorption kinetics experiments on P-CDP; conditions: P-CDP 10 mg/L, MP 1 μg/L
[2] = Micropollutant adsorption kinetics experiments on CCAC; conditions: CCAC 10 mg/L, MP 1 μg/L
[3] = cited from earlier work; for Cs, solubility in water: experimental values
[4] = Langmuir parameters of pollutant adsorption on P-CDP (Table 6); format: binding
Text: H. Thermodynamic studies of adsorption.
K (mol^−1) is the equilibrium constant.

[5] = Batch adsorption kinetic studies of organic pollutants on P-CDP; conditions: estimated from the equilibrium efficiency value from the batch kinetic studies
fish populations = conditions: concentrations as low as; cited from earlier work
[6] = 23° C., estimated at t=30 minutes

Structure (SMILES) | removal by P-CDP (in words) [1] | removal by CCAC (in words) [2] | also measured
COc1cccc(C2(O)CCCCC2CN(C)C)c1 (stereo not shown) [tramadol] | removed well | not effectively removed | 
COc1ccc(C(CN(C)C)C2(O)CCCCC2)cc1 (stereo not shown) [venlafaxine] | removed well | not effectively removed | 
O=C(O)COc1ccc(Cl)cc1Cl [2,4-D] | hardly removed | removed fairly well | kobs [1, 6]: 72.9 g/mg/min; kobs [2, 6]: 11.0 g/mg/min
CC(C)NCC(O)COc1cccc2ccccc12 (stereo not shown) [propranolol] |  |  | Cs, solubility in water [3]: 50 µg/mL
CC(C)(c1ccc(O)cc1)c1ccc(O)cc1 [BPA, Bisphenol A] |  |  | BPA/β-CD molar ratio at qmax,e [4]: 0.9; K, equilibrium constant ([4]; Langmuir): 56,500 Mol^−1; qmax,e, maximum adsorption capacity of pollutant on 1 g P-CDP at equilibrium ([4]; Langmuir): 88.5 mg/g
CC(C)NCC(O)COc1cccc2ccccc12 (stereo not shown) [propranolol hydrochloride] |  |  | K, equilibrium constant [5]: ~72,000^c Mol^−1
Oc1ccc(Cl)cc1Cl [DCP, 2,4-dichlorophenol] |  |  | K, equilibrium constant [5]: ~17,000^c Mol^−1
Oc1ccc2ccccc2c1 [2-NO, 2-naphthol] |  |  | K, equilibrium constant [5]: ~30,000^c Mol^−1
CC(C)(C)NCC(O)c1ccc(O)c(CO)c1 (stereo not shown) [albuterol] | removed well | not effectively removed | 
C#C[C@]1(O)CC[C@H]2[C@@H]3CCc4cc(O)ccc4[C@H]3CC[C@@]21C [ethinyl estradiol] |  |  | concentration that has caused the collapse of fish populations (fish populations): 5 pg/mL; pKa [3]: 10.4; Cs, solubility in water [3]: 2 µg/mL
CCc1cccc(C)c1N(C(=O)CCl)C(C)COC (stereo not shown) [metolachlor] |  |  | K, equilibrium constant [5]: ~35,000^c Mol^−1
COc1ccc2c3c1O[C@H]1[C@@H](O)C=C[C@H]4[C@@H](C2)N(C)CC[C@@]341 [codeine] | removed well | not effectively removed | 
CN1CC[C@]23c4c5ccc(O)c4O[C@H]2[C@@H](O)C=C[C@H]3[C@H]1C5 [morphine] | removed well | not effectively removed | 
COc1ccc2c3c1O[C@H]1C(=O)CC[C@H]4[C@@H](C2)N(C)CC[C@]314 [hydrocodone] | removed well | not effectively removed | 
CC(C)NCC(O)COc1ccc(CC(=O)O)cc1 (stereo not shown) [atenolol acid] | removed well | not effectively removed | 
CC(C)NCC(O)COc1ccc(CC(N)=O)cc1 (stereo not shown) [atenolol] | removed well | not effectively removed | 
O=S(=O)(c1ccc(O)cc1)c1ccc(O)cc1 [BPS, bisphenol S] |  |  | K, equilibrium constant [5]: ~17,000^c Mol^−1
CC(N)Cc1ccccc1 (stereo not shown) [amphetamine] | removed well | not effectively removed | 
